Experimental data as given in ChEMBL document CHEMBL4229332, “Novel multi-target azinesulfonamides of cyclic amine derivatives as potential antipsychotics with pro-social and pro-cognitive effects” (Eur J Med Chem, 2018).

Key:
Experiment in all cases: biochemical
[1] = target: 5-hydroxytryptamine receptor 2A (Homo sapiens, UniProt P28223); assay type: cell-based, CHO-K1
[2] = target: 5-hydroxytryptamine receptor 6 (Homo sapiens, UniProt P50406)
Description: Displacement of [3H]-LSD from human 5-HT6R expressed in HEK293 cell membranes after 1 hr at 37 degC by microbeta counting method

[3] = target: T1, 5-hydroxytryptamine receptor 1A (Homo sapiens, UniProt P08908)
T1 sequence (P08908 whole entry): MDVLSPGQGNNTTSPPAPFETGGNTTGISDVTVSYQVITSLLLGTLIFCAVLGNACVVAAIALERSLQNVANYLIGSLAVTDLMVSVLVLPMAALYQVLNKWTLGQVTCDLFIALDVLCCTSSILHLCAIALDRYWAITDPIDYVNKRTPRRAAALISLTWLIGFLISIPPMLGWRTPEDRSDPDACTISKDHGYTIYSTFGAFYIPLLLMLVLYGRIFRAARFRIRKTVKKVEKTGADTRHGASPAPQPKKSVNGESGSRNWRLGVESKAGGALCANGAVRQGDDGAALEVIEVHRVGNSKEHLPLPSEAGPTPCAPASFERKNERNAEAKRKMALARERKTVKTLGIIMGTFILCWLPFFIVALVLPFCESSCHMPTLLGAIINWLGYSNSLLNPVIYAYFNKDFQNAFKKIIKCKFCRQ
Description: Displacement of [3H]-8-OH-DPAT from human 5-HT1AR expressed in HEK293 cell membranes after 1 hr by microbeta counting method

[4] = target: 5-hydroxytryptamine receptor 7 (Homo sapiens, UniProt P34969)
5-hydroxytryptamine receptor 7, sequence (P34969 whole entry): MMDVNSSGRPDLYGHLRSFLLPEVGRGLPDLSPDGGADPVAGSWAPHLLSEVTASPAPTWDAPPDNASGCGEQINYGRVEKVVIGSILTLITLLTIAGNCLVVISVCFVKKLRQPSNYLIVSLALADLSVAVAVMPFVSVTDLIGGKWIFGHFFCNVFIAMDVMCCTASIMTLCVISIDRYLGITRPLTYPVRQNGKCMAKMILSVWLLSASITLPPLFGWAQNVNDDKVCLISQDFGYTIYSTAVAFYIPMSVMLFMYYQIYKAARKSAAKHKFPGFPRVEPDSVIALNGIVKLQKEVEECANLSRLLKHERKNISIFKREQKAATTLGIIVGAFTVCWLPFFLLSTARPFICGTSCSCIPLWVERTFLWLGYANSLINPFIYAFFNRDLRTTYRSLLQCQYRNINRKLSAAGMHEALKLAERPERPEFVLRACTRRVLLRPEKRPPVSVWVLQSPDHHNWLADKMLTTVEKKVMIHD
Description: Displacement of [3H]-5-CT from human 5-HT7R expressed in HEK293 cell membranes after 1 hr at 37 degC by microbeta counting method

5-hydroxytryptamine receptor 6, sequence (P50406 whole entry): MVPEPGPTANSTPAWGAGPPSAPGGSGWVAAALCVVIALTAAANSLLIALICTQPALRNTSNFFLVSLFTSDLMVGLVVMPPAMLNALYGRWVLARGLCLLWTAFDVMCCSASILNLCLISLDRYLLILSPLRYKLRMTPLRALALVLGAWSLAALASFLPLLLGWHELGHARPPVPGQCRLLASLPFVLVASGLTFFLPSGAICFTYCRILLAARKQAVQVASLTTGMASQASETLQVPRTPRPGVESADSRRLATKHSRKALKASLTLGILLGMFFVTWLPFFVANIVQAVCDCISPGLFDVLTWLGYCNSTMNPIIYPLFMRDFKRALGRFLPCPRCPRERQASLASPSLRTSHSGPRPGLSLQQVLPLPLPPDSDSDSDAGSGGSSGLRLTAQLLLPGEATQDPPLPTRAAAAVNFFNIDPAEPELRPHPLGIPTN
5-hydroxytryptamine receptor 2A, sequence (P28223 whole entry): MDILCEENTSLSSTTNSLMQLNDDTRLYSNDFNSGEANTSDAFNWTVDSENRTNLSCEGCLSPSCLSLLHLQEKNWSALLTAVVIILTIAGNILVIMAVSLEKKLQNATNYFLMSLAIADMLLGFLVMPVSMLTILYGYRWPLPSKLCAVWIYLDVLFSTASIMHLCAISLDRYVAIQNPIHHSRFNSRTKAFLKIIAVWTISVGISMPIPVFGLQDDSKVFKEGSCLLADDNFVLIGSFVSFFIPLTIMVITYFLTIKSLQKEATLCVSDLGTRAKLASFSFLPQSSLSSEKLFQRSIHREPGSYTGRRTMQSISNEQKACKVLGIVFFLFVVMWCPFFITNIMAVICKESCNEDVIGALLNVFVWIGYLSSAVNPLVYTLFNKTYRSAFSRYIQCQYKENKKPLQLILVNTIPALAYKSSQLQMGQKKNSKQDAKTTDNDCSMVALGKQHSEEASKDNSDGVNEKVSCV

Compound	Ki [1]	Ki [2]	Ki [3]	Ki [4]
O=S(=O)(c1cncc2ccccc12)N1CCC[C@H]1CCN1CCN(c2cccc3c2OCCO3)CC1	91 nM	1480 nM	6 nM	142 nM
O=S(=O)(c1cccc2ncccc12)N1CCC[C@H]1CCN1CCC(c2noc3cc(F)ccc23)CC1	12 nM	169 nM	147 nM	12 nM
O=S(=O)(c1cccc2ncccc12)N1CCCC[C@@H]1CCN1CCN(c2nsc3ccccc23)CC1	29 nM	949 nM	28 nM	52 nM
O=S(=O)(c1cccc2ncccc12)N1CCCCC[C@H]1CCN1CCN(c2cccc3sccc23)CC1	51 nM	176 nM	12 nM	19 nM
O=S(=O)(c1cncc2ccccc12)N1CC[C@@H]1CCN1CCN(c2cccc3sccc23)CC1	16 nM	104 nM	16 nM	31 nM
O=S(=O)(c1cncc2ccccc12)N1CCC[C@H]1CCN1CCN(c2noc3ccccc23)CC1	33 nM	497 nM	96 nM	6 nM
O=S(=O)(c1cccc2ncccc12)N1CCC[C@@H]1CCN1CCN(c2cccc3c2OCCO3)CC1	296 nM	996 nM	5 nM	66 nM
O=S(=O)(c1cccc2ncccc12)N1CCCC[C@@H]1CCN1CCN(c2cccc3sccc23)CC1	35 nM	337 nM	15 nM	22 nM
O=S(=O)(c1cncc2ccccc12)N1CCCC[C@@H]1CCN1CCN(c2cccc3sccc23)CC1	64 nM	221 nM	12 nM	32 nM
O=S(=O)(c1cccc2ncccc12)N1CCC[C@H]1CCN1CCN(c2nsc3ccccc23)CC1	16 nM	311 nM	25 nM	–
O=c1[nH]c2c(N3CCN(CC[C@H]4CCCN4S(=O)(=O)c4cncc5ccccc45)CC3)cccc2o1	1970 nM	1810 nM	36 nM	1340 nM
O=S(=O)(c1cccc2ncccc12)N1CCC[C@H]1CCN1CCN(c2cccc3sccc23)CC1	36 nM	82 nM	13 nM	19 nM
O=S(=O)(c1cccc2ncccc12)N1CCC[C@@H]1CCN1CCC(c2noc3cc(F)ccc23)CC1	5 nM	45 nM	120 nM	12 nM
O=S(=O)(c1ccnc2ccccc12)N1CCCC[C@@H]1CCN1CCN(c2nsc3ccccc23)CC1	35 nM	1260 nM	24 nM	69 nM
O=S(=O)(c1cccc2ncccc12)N1CC[C@@H]1CCN1CCN(c2nsc3ccccc23)CC1	30 nM	344 nM	54 nM	57 nM
O=S(=O)(c1cncc2ccccc12)N1CCCCC[C@H]1CCN1CCN(c2cccc3sccc23)CC1	29 nM	190 nM	8 nM	24 nM
O=S(=O)(c1cncc2ccccc12)N1CCC[C@@H]1CCN1CCN(c2cccc3c2OCCO3)CC1	390 nM	1260 nM	7 nM	52 nM
O=S(=O)(c1cccc2ncccc12)N1CCCCC[C@H]1CCN1CCN(c2nsc3ccccc23)CC1	30 nM	457 nM	48 nM	17 nM
O=S(=O)(c1cncc2ccccc12)N1CCC[C@H]1CCN1CCN(c2cccc3[nH]ccc23)CC1	82 nM	2060 nM	8 nM	75 nM
O=S(=O)(c1cncc2ccccc12)N1CCC[C@@H]1CCN1CC=C(c2c[nH]c3ccc(Cl)cc23)CC1	1900 nM	23 nM	147 nM	8 nM

More lines, in order of falling Ki [1], values ahead:

Ki [1]	Ki [2]	Ki [3]	Ki [4]	Compound
2450 nM	3910 nM	23 nM	1120 nM	O=c1[nH]c2c(N3CCN(CC[C@@H]4CCCN4S(=O)(=O)c4cccc5ncccc45)CC3)cccc2o1
2040 nM	2990 nM	27 nM	672 nM	O=c1[nH]c2c(N3CCN(CC[C@@H]4CCCN4S(=O)(=O)c4cncc5ccccc45)CC3)cccc2o1
1400 nM	77 nM	146 nM	65 nM	O=S(=O)(c1cccc2ncccc12)N1CCC[C@H]1CCN1CC=C(c2c[nH]c3ccc(Cl)cc23)CC1
1150 nM	18 nM	91 nM	12 nM	O=S(=O)(c1cccc2ncccc12)N1CCC[C@@H]1CCN1CC=C(c2c[nH]c3ccc(Cl)cc23)CC1
451 nM	641 nM	5 nM	14 nM	O=S(=O)(c1cccc2ncccc12)N1CCC[C@@H]1CCN1CCN(c2cccc3[nH]ccc23)CC1
244 nM	2310 nM	14 nM	165 nM	O=S(=O)(c1cccc2ncccc12)N1CCC[C@H]1CCN1CCN(c2cccc3[nH]ccc23)CC1
238 nM	60 nM	66 nM	97 nM	O=S(=O)(c1cncc2ccccc12)N1CCC[C@H]1CCN1CC=C(c2c[nH]c3ccc(Cl)cc23)CC1
110 nM	2530 nM	6 nM	349 nM	O=S(=O)(c1cccc2ncccc12)N1CCC[C@H]1CCN1CCN(c2cccc3c2OCCO3)CC1
76 nM	766 nM	6 nM	4 nM	O=S(=O)(c1cncc2ccccc12)N1CCC[C@@H]1CCN1CCN(c2cccc3[nH]ccc23)CC1
56 nM	13 nM	15 nM	1 nM	O=S(=O)(c1cccc2ncccc12)N1CCC[C@@H]1CCN1CCN(c2cccc3sccc23)CC1
49 nM	291 nM	179 nM	7 nM	O=S(=O)(c1cccc2ncccc12)N1CCC[C@H]1CCN1CCN(c2noc3ccccc23)CC1
41 nM	92 nM	86 nM	10 nM	O=S(=O)(c1cccc2cnccc12)N1CCC[C@H]1CCN1CCN(c2noc3ccccc23)CC1
26 nM	623 nM	50 nM	19 nM	O=S(=O)(c1ccnc2ccccc12)N1CCCCC[C@H]1CCN1CCN(c2nsc3ccccc23)CC1
24 nM	348 nM	56 nM	51 nM	O=S(=O)(c1cncc2ccccc12)N1CC[C@@H]1CCN1CCN(c2nsc3ccccc23)CC1
21 nM	38 nM	24 nM	–	O=S(=O)(c1cccc2ncccc12)N1CCC[C@@H]1CCN1CCN(c2nsc3ccccc23)CC1
19 nM	9 nM	13 nM	3 nM	O=S(=O)(c1cccc2cnccc12)N1CCC[C@@H]1CCN1CCN(c2cccc3sccc23)CC1
9 nM	72 nM	10 nM	23 nM	O=S(=O)(c1cccc2cnccc12)N1CCC[C@H]1CCN1CCN(c2cccc3sccc23)CC1
7 nM	130 nM	9 nM	45 nM	O=S(=O)(c1cccc2ncccc12)N1CC[C@@H]1CCN1CCN(c2cccc3sccc23)CC1
6 nM	137 nM	111 nM	0.4 nM	O=S(=O)(c1cncc2ccccc12)N1CCC[C@H]1CCN1CCC(c2noc3cc(F)ccc23)CC1
